Here are results for two molecules from US11191288B2, “Use of a feed composition for reducing methane emission in ruminants, and/or to improve ruminant performance” (DSM IP ASSETS B.V., priority 2017, dated 2021).

For test [1], the system named is rumen liquor. The test is described as follows: In vitro test for methane production (modified Hohenheim Forage value Test, HFT). In kind it is cell-based. Conditions: for Total methane: 8 h, 39° C., artificial TMR, average of three experiments. On the procedure: In Vitro Test for Methane Production:
(§1) A modified version of the “Hohenheim Forage value Test (HFT)” was used for testing the effect of specific compounds on the rumen functions mimicked by this in-vitro system.
(§2) Feed is gadded into a syringe with a composition of rumen liquor and an appropriate mixture of buffers. The solution is incubated at 39° C. After 8 hours the quantity (and composition) of gas phase produced is measured and put into a formula for conversion.
(§3) The feed stuff is sieved to 1 mm—usually TMR (44% concentrate, 6% hay, 37% maize silage and 13% grass silage)—and weighed exactly into 64 syringes. 4 of these syringes are the substrate controls, which display the gas production without the effect of the tested compounds. […] When needed, 4 syringes contain a carrier control (if the test compounds need a carrier). The remaining syringes contain the test substances, by groups of 4 syringes.
(§4) Preparation of the Medium Solution: • The components are mixed in a Woulff bottle in following order: • 711 ml water • 0.18 ml trace element solution • 355.5 ml buffer solution • 355.5 ml mass element solution • The completed solution is warmed up to 39° C. followed by the addition of 1.83 ml sodium salt solution and the addition of reduction solution at 36° C. The rumen liquor is added, when the indicator turns colourless.
(§5) 750 ml of rumen liquor are added to approximately 1,400 ml of medium solution under continued agitation and CO2-gassing.
(§6) The diluted rumen fluid (24 ml) is added to the glass syringe. The syringes are then incubated for 8 hours at 39° C. under gentle agitation. After 8 hours, the volume of gas produced is measured, and the percentage of methane in the gas phase is determined by gas chromatography.
(§7) The food fermented was artificial TMR (44% concentrate, 6% hay, 37% maize silage and 13% grass silage). Lauric acid from Sigma Aldrich was used at a concentration of 1000 μM. 3-Nitrooxy-propanol (3-NOP) was used at two different concentrations, 2.5 μM and 5 μM.
(§8) Ace.=acetate; Prop.=propionate

Test [2] concerns rumen liquor. The test is described as follows: Effect on volatile fatty acids (VFA) profile, acetate/propionate ratio (modified Hohenheim Forage value Test, HFT). In kind it is cell-based. As to conditions: for Ace./Prop.: 8 h, 39° C., artificial TMR, average of three experiments. On the procedure:
as §1, §2, §3, §4, §5
Filling the Syringes, Incubation and Determining Gas Volumes and VFA Values:
as §6, §7, §8

SMILES strings stand for the structures.

On to `CCCCCCCCCCCC(=O)O` [Lauric acid, reference compound], for which, in test [1] (Lauric acid 1000 μM), the “Reduction vs. control (methane)” value came out at 0.012 mmol over 8 h and the Total methane is 0.255 mmol over 8 h. In test [2] (Lauric acid 1000 μM), the “Reduction vs. control (Ace./Prop.)” value worked out at 0.28 Mole Ratio and the Ace./Prop. is 1.98 Mole Ratio.
Turning to `O=[N+]([O-])OCCCO` [3-NOP, 3-Nitrooxypropanol], the results for the “Reduction vs. control (methane)” value in test [1] (3-NOP 2.5 μM) and in test [1] (3-NOP 5 μM) were 0.023 mmol over 8 h and 0.17 mmol over 8 h, respectively. Also, the Total methane is 0.244 mmol over 8 h in test [1] (3-NOP 2.5 μM) and 0.097 mmol over 8 h in test [1] (3-NOP 5 μM). The “Reduction vs. control (Ace./Prop.)” value in test [2] (3-NOP 2.5 μM) is 0.17 Mole Ratio; in test [2] (3-NOP 5 μM), 0.63 Mole Ratio. The Ace./Prop. in test [2] (3-NOP 2.5 μM) was found to be 2.09 Mole Ratio; in test [2] (3-NOP 5 μM) it was 1.63 Mole Ratio.
